# Assay results taken from US8993606B2, “Oral formulations for treating metal overload” (FerroKin BioSciences, Inc., priority 2011, dated 2015).
# Read-outs that look alike come from different tables or passages of the source.
# Key:
# [1] = Aqueous solubility of salts; type: physicochemical; settings: water; read-out: solubility in water
# Description: Typically, oral formulations described herein facilitate solubilizing an active ingredient (e.g., a desazadesferrithiocin analog, salt or polymorph) at a desired amount or rate suitable for the treatment of metal overload. As used herein, the term “solubility” is generally intended to be synonymous with the term “aqueous solubility,” and refers to the ability, and the degree of the ability, of a compound to dissolve in water or an aqueous solvent or buffer, as might be found under physiological conditions. Aqueous solubility is, in and of itself, a useful quantitative measure, but it has additional utility as a correlate and predictor, with some limitations which will be clear to those of skill in the art, of oral bioavailability. Typically, a soluble compound is generally desirable, and the more soluble, the better. In liquid formulations, solubility is typically reported in mg/mL, but other measures, such as g/g, may be used. Solubilities typically deemed acceptable may range from 1 mg/mL into the hundreds or thousands of mg/mL.
# Solubility may be measured under varying conditions. For example, it may be measured under conditions similar to those found in the body, such as at gastric pH or at physiologic or near-physiologic pH. “Gastric pH” as used herein means about pH 1. […]
# [2] = Example 4: seven-day dosing in iron-overloaded human subjects (PK, tolerability); type: in vivo; settings: for CL renal / half-life / Cmax / Tmax / AUC(0-t) / Vd/F: human; for CL renal: plasma and urine; for half-life / Cmax / Tmax / AUC(0-t) / Vd/F: plasma; for AUC(0-t): read-out: AUC(0-24); for Vd/F: read-out: Vz/F
# Method: A dose-escalation study to assess the safety, tolerability, pharmacokinetics and pharmacodynamics of Compound 1, which correspond to a capsule formulation of (S)-3′-(OH)-DADFT-PE was conducted in 16 adult patients with iron overloaded consequent to transfusions. […] Compound 1 was supplied as capsules containing 50 mg, 100 mg, or 250 mg. The capsules were manufactured in accordance with Annex 13 and the principle of cGMP at Aptuit (10245 Hickman Mills Drive, Kansas City, Mo. 64137).
# Patients 18 years or older with documented transfusional iron overload requiring chronic treatment with deferiprone, deferasirox or deferoxamine were eligible. Causes of iron overload included β-thalassemia major, α-thalassemia or α-thalassemia hydrops)(α°α°, sickle cell disease, and congenital dyserythropoietic anemia. Each of the four cohorts contained four patients. For the purposes of this study, transfusion dependence was defined as requiring eight or more transfusions per year. The iron burden inclusion criteria were defined as: (i) liver iron concentration greater than 2 mg/g (dry weight, liver) as determined by R2 magnetic resonance imaging; (ii) a cardiac magnetic resonance imaging T2* greater than 12 ms; and (iii) serum ferritin in excess of 600 ng/mL. Eligible patients who consented to participation in the study discontinued their regular chelation therapy for up to 5 days during a wash-out period prior to their first dose of Compound 1. Patients received Compound 1 in capsules taken orally in a fasted state.
# In this study, a standard pharmacokinetic protocol of plasma sampling was performed throughout the 7 days of dosing and continuing for 3 days after the last dose on day 7. Actual blood sampling and urine collection times were used in all pharmacokinetic analyses. […] A formally validated bioanalytical method for quantifying total Compound 1 in human plasma and urine was developed. The drug was extracted from plasma using solid phase extraction and analyzed using high performance liquid chromatography with tandem mass spectrometric determination, and d3-[Compound 1] as an internal standard. The method was used to measure drug (MW 400) over the range of 5 to 2000 ng/mL (12.5-5000 nM) and at sample dilutions of 20- to 50-fold.
# Pharmacokinetic parameters for Compound 1 were estimated using non-compartmental analysis. Only plasma and urine concentrations greater than the lower limits of quantitation (LOQ, 5 ng/mL in plasma, 5 ng/mL in urine) for the assays were used in the pharmacokinetic analysis.
# Plasma concentrations, blood sampling times, urine concentrations, urine volumes, and the amount excreted in each interval, and pharmacokinetic parameters were listed by dose group and patient. Plasma concentrations and pharmacokinetic parameters were summarized by dose group using descriptive statistics: linearity with respect to Cmax and AUC(0-24) was assessed using the power model, i.e. P=a×Doseb, where P represents the parameter and a and b are constants. A log-log plot of P versus Dose is linear and a value of b of ≈1 indicates linearity. The equation was fitted to the individual patients' data using non-linear least squares regression. Parameters were compared among doses using descriptive statistics. Due to the small numbers of patients per panel, no formal statistical analyses were done.
# healthy adult subjects = assay: Safety: bioavailability study oral capsules versus oral solution in healthy subjects; type: in vivo
# Method: This study was a study in healthy adult subjects designed to compare the bioavailability of Compound 1 when administered as an oral capsule or solution. 24 subjects were enrolled and 22 completed the study: Subjects received a single oral dose of 16 mg/kg of Compound 1 as an oral capsule or as a solution. […] Treatment-emergent AEs were reported for 14 of the 24 subjects receiving Compound 1 (58%). […] TEAEs included headache (3 subjects), fever (2 subjects), nausea (2 subjects), lethargy (2 subjects), and loss of appetite (1 subject).
smiles,measurement,setting,value
"COCCOCCOCCOc1cccc(C2=N[C@@](C)(C(=O)O)CS2)c1O [Compound 1, (S)-4,5-Dihydro-2-[2-hydroxy-3-(3,6,9-trioxadecyloxy)phenyl]-4-methyl-4-thiazolecarboxylate magnesium hydroxide]",solubility,[1],≥ 48 mg/mL
same,CL/F,[2]; 3 mg/kg daily 7 days oral,162 ± 85 mL/min
same,CL/F,[2]; 8 mg/kg daily 7 days oral,225 ± 142 mL/min
same,CL/F,[2]; 16 mg/kg daily 7 days oral,206 ± 78.4 mL/min
same,CL/F,[2]; 32 mg/kg daily 7 days oral,172 ± 60.1 mL/min
same,serious adverse events associated with the drug,[2]; 3-32 mg/kg daily 7 days,no serious adverse events
same,dose proportionality of plasma concentrations,[2]; all four doses 3-32 mg/kg,"dose-proportional, linear pharmacokinetics"
same,tolerability,[2]; daily for 7 days at doses up to 32 mg/kg,well tolerated at all dose levels
same,CL renal,[2]; 3 mg/kg daily 7 days oral,75.2 ± 46.8 mL/min
same,CL renal,[2]; 8 mg/kg daily 7 days oral,105 ± 62.9 mL/min
same,CL renal,[2]; 16 mg/kg daily 7 days oral,83.2 ± 36.5 mL/min
same,CL renal,[2]; 32 mg/kg daily 7 days oral,73.6 ± 37.8 mL/min
same,half-life,"[2]; oral, 40 mg/kg, 5th cohort of four patients, read-out: Mean half life (t½) (converted)",1600 min
same,half-life,"[2]; oral, across doses 3-32 mg/kg, read-out: t½ (converted)",1150 min
same,Cmax,[2]; 3 mg/kg daily 7 days oral,5910 ± 2300 ng/mL
same,Tmax,[2]; 3 mg/kg daily 7 days oral,1.31 h
same,AUC(0-t),[2]; 3 mg/kg daily 7 days oral,19500 ± 11300 ng·h/mL
same,Vd/F,[2]; 3 mg/kg daily 7 days oral,185 ± 84.1 L
same,half-life,"[2]; 3 mg/kg daily 7 days oral, read-out: t½ (converted)",972 ± 499 min
same,Cmax,[2]; 8 mg/kg daily 7 days oral,15000 ± 4440 ng/mL
same,Tmax,[2]; 8 mg/kg daily 7 days oral,1.18 h
same,AUC(0-t),[2]; 8 mg/kg daily 7 days oral,44900 ± 30800 ng·h/mL
same,Vd/F,[2]; 8 mg/kg daily 7 days oral,311 ± 137 L
same,half-life,"[2]; 8 mg/kg daily 7 days oral, read-out: t½ (converted)",1250 ± 678 min
same,Cmax,[2]; 16 mg/kg daily 7 days oral,38200 ng/mL
same,Tmax,[2]; 16 mg/kg daily 7 days oral,1 h
same,AUC(0-t),[2]; 16 mg/kg daily 7 days oral,92300 ± 36600 ng·h/mL
same,Vd/F,[2]; 16 mg/kg daily 7 days oral,339 ± 166 L
same,half-life,"[2]; 16 mg/kg daily 7 days oral, read-out: t½ (converted)",1280 ± 708 min
same,Cmax,[2]; 32 mg/kg daily 7 days oral,60200 ± 27500 ng/mL
same,Tmax,[2]; 32 mg/kg daily 7 days oral,1.49 h
same,AUC(0-t),[2]; 32 mg/kg daily 7 days oral,158000 ± 43500 ng·h/mL
same,Vd/F,[2]; 32 mg/kg daily 7 days oral,214 ± 2.94 L
same,half-life,"[2]; 32 mg/kg daily 7 days oral, read-out: t½ (converted)",1120 ± 269 min
same,subjects with treatment-emergent AEs,healthy adult subjects; 14 of the 24 subjects,58%
same,TEAE fever,healthy adult subjects; 24 subjects,2 subjects
same,TEAE headache,healthy adult subjects; 24 subjects,3 subjects
same,TEAE lethargy,healthy adult subjects; 24 subjects,2 subjects
same,TEAE loss of appetite,healthy adult subjects; 24 subjects,1 subject
same,TEAE nausea,healthy adult subjects; 24 subjects,2 subjects
same,"deaths, SAEs, withdrawals as the result of an AE",healthy adult subjects; single oral dose 16 mg/kg,"no deaths, no SAEs, and no withdrawals as the result of an AE"
same,intensity of all AEs,healthy adult subjects; single oral dose 16 mg/kg,mild or moderate intensity
same,tolerability,"healthy adult subjects; single oral dose 16 mg/kg, capsule or solution",well tolerated
